# Source: PubChem BioAssay AID1918939 (Molecular Pharmacology Branch, DTP, NCI, 2023)
# System: 653999-131-R-J2-PDC complex spheroid viability
# Experiment: Anticancer human tumor 653999-131-R-J2-PDC patient-derived lung adenocarcinoma cell line growth inhibition
# Details: for IC50: curve of first compound; for viability, T/C: stronger effect = lower value
# Text: Multicellular complex tumor spheroid response to LSD1 Inhibitor Iadademstat in combination with a variety of drugs and investigational agents in selected tumor cell lines
# The current study was undertaken to assess response to LSD1 inhibitors in combination with standard-of-care drugs and investigational agents in solid tumor complex spheroid models as well as in the K-562 leukemia. Complex spheroids include a stromal component modeled by human endothelial cells (HUVEC) and fibroblasts modeled by human mesenchymal stem cells (MSCs). The concentration ranges selected for each drug and investigational agent were based upon clinically achievable concentrations if the clinical Cmax of the agent was known.
# Compounds. The drugs and investigational agents used in this study are listed on Table 1. All of the agents used, including staurosporine (NSC755774) and gemcitabine (NSC613327), were obtained from the Developmental Therapeutics Program, NCI. FDA-approved anticancer drugs are available from the NCI at http://dtp.nci.nih.gov/branches/dscb/oncology_drugset_explanation.html. Drugs and investigational agents were >95% pure by proton nuclear magnetic resonance (NMR) and liquid chromatography/mass spectrometry (LC/MS). Stock solutions were prepared at 400x in DMSO, stored at -70 degrees C, and diluted in fresh medium prior to their use. The final concentration of DMSO in cell culture wells never exceeded 0.25% (v/v). The FDA-approved anticancer drug set is available from the Developmental Therapeutics Program at https://dtp.cancer.gov/organization/dscb/obtaining/available_plates.htm. All drugs and investigational agents were tested over a range starting from a high concentration at or near the clinical Cmax and decreasing in half-log increments. If the clinical Cmax for an agent had not been determined, the highest concentration tested was 10 microM.
# Cell Lines. The patient-derived cancer cell (PDC) lines: 292921-168-R-J2-PDC, K24384-001-R-PDC, and 521955-158-R2-J5-PDC pancreatic carcinomas, 556581-035-R-J1 ovarian carcinoma, 324938-238-R-J1-PDC, 855422-203-R-J1-PDC and 883617-216-R-J1-PDC urothelial bladder carcinomas, 743489-274-T-PDC renal cell carcinoma, 138582-R-J1 Merkel cell tumor, K60290-347-R-J1 and K57222-313-R-J1-PDC glioblastomas, 653999-131-R-J2-PDC, LG0703-F948-PDC, and 349418-098-R-PDC non-small cell lung carcinomas, 885512-296-R-J2-PDC, 171881-019-R-J1-PDC breast carcinomas and 186277-243-T-J2-PDC and 233499-124-R-J2-PDC colon carcinomas were obtained from the NCI Patient-Derived Models Repository (PDMR, https://pdmr.cancer.gov). The established cell lines NCI/ADR-RES (RRID:CVCL_14520 and OVCAR-5 (RRID:CVCL_1628) ovarian carcinomas, 786-O (RRID:CVCL_1051) and A498 (RRID:CVCL_A498) renal cell carcinoma, NCI-H211 (ATCC, cat. CRL-5824; RRID:CVCL_1529), NCI-H196 (ATCC, cat. CRL-5823, RRID:CVCL_1509), SW 1271 (ATCC, cat. CRL-2177, RRID:CVCL_1716) and NCI-H1876 (ATCC, cat. CRL-5902, RRID:CVCL_1503) small cell lung carcinomas, MDA-MB-231 (RRID:CVCL_0062) and MDA-MB-468 (RRID:CVCL_0419)breast carcinomas (10-12). Pooled donor human umbilical vein endothelial cells (HUVEC, Lonza, cat. CC-2519) and human mesenchymal stem cells (hMSC, Lonza, cat. PT-2501) were purchased from Lonza (Walkersville, MD).
# Cell Culture. All cells were maintained in an incubator at 37 degrees C and 5% CO2 with 95% humidity. The PDC lines were cultured according to standard operating procedures established by the NCI PDMR (https://pdmr.cancer.gov). Briefly all PDCs were thawed and cultured in Matrigel-coated flasks prepared with a working solution of 1X Ham's F-12 nutrient mix, without supplementation (Invitrogen, Waltham, MA, cat. 11765054), 100 U/mL penicillin-streptomycin (Invitrogen, cat. 15140122), and 2.5% Matrigel (Corning Inc., Corning, NY, cat. 354248) for the first three passages. […]
# [1] = second compound 0.1 µM, first compound 0.00316 µM
# [2] = second compound 0.1 µM, first compound 0.01 µM
# [3] = second compound 0.1 µM, first compound 0.0316 µM
# [4] = second compound 0.1 µM, first compound 0.1 µM
# [5] = second compound 0.316 µM, first compound 0.00316 µM
# [6] = second compound 0.316 µM, first compound 0.01 µM
# [7] = second compound 0.316 µM, first compound 0.0316 µM
# [8] = second compound 0.316 µM, first compound 0.1 µM
# [9] = second compound 1 µM, first compound 0.00316 µM
# [10] = second compound 1 µM, first compound 0.01 µM
# [11] = second compound 1 µM, first compound 0.0316 µM
# [12] = second compound 1 µM, first compound 0.1 µM
# [13] = second compound 3.16 µM, first compound 0.00316 µM
# [14] = second compound 3.16 µM, first compound 0.01 µM
# [15] = second compound 3.16 µM, first compound 0.0316 µM
# [16] = second compound 3.16 µM, first compound 0.1 µM
# [17] = second compound 10 µM, first compound 0.00316 µM
# [18] = second compound 10 µM, first compound 0.01 µM
# [19] = second compound 10 µM, first compound 0.0316 µM
# [20] = second compound 10 µM, first compound 0.1 µM
# 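Also: spheroids exposed to agents for seven days before readout.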
smiles,measurement,setting,value
CC[C@@]1(O)C(=O)OCc2c1cc1n(c2=O)Cc2cc3c(CN(C)C)c(O)ccc3nc2-1 + NC1CC1c1ccc(-c2cccc(O)c2)cc1,IC50,second compound 0.1 µM,11.6 nM
same,IC50,second compound 0.316 µM,9.2 nM
same,IC50,second compound 1 µM,9.32 nM
same,IC50,second compound 3.16 µM,11.3 nM
same,IC50,second compound 10 µM,13.9 nM
same,"viability, T/C","second compound 0.1 µM, first compound 0.000316 µM",114%
same,"viability, T/C","second compound 0.1 µM, first compound 0.001 µM",92.8%
same,"viability, T/C",[1],85%
same,"viability, T/C",[2],49.6%
same,"viability, T/C",[3],33.6%
same,"viability, T/C",[4],27.9%
same,"viability, T/C","second compound 0.316 µM, first compound 0.000316 µM",111%
same,"viability, T/C","second compound 0.316 µM, first compound 0.001 µM",108%
same,"viability, T/C",[5],83.8%
same,"viability, T/C",[6],45.6%
same,"viability, T/C",[7],35.6%
same,"viability, T/C",[8],23.2%
same,"viability, T/C","second compound 1 µM, first compound 0.000316 µM",82.6%
same,"viability, T/C","second compound 1 µM, first compound 0.001 µM",101%
same,"viability, T/C",[9],79.6%
same,"viability, T/C",[10],47.4%
same,"viability, T/C",[11],35.8%
same,"viability, T/C",[12],25.5%
same,"viability, T/C","second compound 3.16 µM, first compound 0.000316 µM",91.6%
same,"viability, T/C","second compound 3.16 µM, first compound 0.001 µM",85.8%
same,"viability, T/C",[13],87.1%
same,"viability, T/C",[14],52%
same,"viability, T/C",[15],31.9%
same,"viability, T/C",[16],27.9%
same,"viability, T/C","second compound 10 µM, first compound 0.000316 µM",86.9%
same,"viability, T/C","second compound 10 µM, first compound 0.001 µM",87.6%
same,"viability, T/C",[17],80.7%
same,"viability, T/C",[18],54.9%
same,"viability, T/C",[19],36.1%
same,"viability, T/C",[20],26.4%
COc1cc(C2c3cc4c(cc3C(OC3OC5COC(C)OC5C(O)C3O)C3COC(=O)C23)OCO4)cc(OC)c1O (stereo not given) + NC1CC1c1ccc(-c2cccc(O)c2)cc1,IC50,second compound 0.1 µM,166 nM
same,IC50,second compound 0.316 µM,135 nM
same,IC50,second compound 1 µM,110 nM
same,IC50,second compound 3.16 µM,97.6 nM
same,IC50,second compound 10 µM,248 nM
same,"viability, T/C","second compound 0.1 µM, first compound 0.00949 µM",83.5%
same,"viability, T/C","second compound 0.1 µM, first compound 0.03 µM",67.2%
same,"viability, T/C","second compound 0.1 µM, first compound 0.0949 µM",57.9%
same,"viability, T/C","second compound 0.1 µM, first compound 0.3 µM",41.4%
same,"viability, T/C","second compound 0.1 µM, first compound 0.949 µM",37%
same,"viability, T/C","second compound 0.1 µM, first compound 3 µM",27.8%
same,"viability, T/C","second compound 0.316 µM, first compound 0.00949 µM",75.4%
same,"viability, T/C","second compound 0.316 µM, first compound 0.03 µM",62.9%
same,"viability, T/C","second compound 0.316 µM, first compound 0.0949 µM",50.3%
same,"viability, T/C","second compound 0.316 µM, first compound 0.3 µM",45.9%
same,"viability, T/C","second compound 0.316 µM, first compound 0.949 µM",34.8%
same,"viability, T/C","second compound 0.316 µM, first compound 3 µM",25.2%
same,"viability, T/C","second compound 1 µM, first compound 0.00949 µM",75.7%
same,"viability, T/C","second compound 1 µM, first compound 0.03 µM",64%
same,"viability, T/C","second compound 1 µM, first compound 0.0949 µM",51.8%
same,"viability, T/C","second compound 1 µM, first compound 0.3 µM",38.3%
same,"viability, T/C","second compound 1 µM, first compound 0.949 µM",35.9%
same,"viability, T/C","second compound 1 µM, first compound 3 µM",26.1%
same,"viability, T/C","second compound 3.16 µM, first compound 0.00949 µM",77.3%
same,"viability, T/C","second compound 3.16 µM, first compound 0.03 µM",66.2%
same,"viability, T/C","second compound 3.16 µM, first compound 0.0949 µM",49.4%
same,"viability, T/C","second compound 3.16 µM, first compound 0.3 µM",39.5%
same,"viability, T/C","second compound 3.16 µM, first compound 0.949 µM",32.8%
same,"viability, T/C","second compound 3.16 µM, first compound 3 µM",30.5%
same,"viability, T/C","second compound 10 µM, first compound 0.00949 µM",73%
same,"viability, T/C","second compound 10 µM, first compound 0.03 µM",65.9%
same,"viability, T/C","second compound 10 µM, first compound 0.0949 µM",61.5%
same,"viability, T/C","second compound 10 µM, first compound 0.3 µM",46.3%
same,"viability, T/C","second compound 10 µM, first compound 0.949 µM",39%
same,"viability, T/C","second compound 10 µM, first compound 3 µM",31.1%
Nc1ncn(C2CC(O)C(CO)O2)c(=O)n1 (stereo not given) + NC1CC1c1ccc(-c2cccc(O)c2)cc1,IC50,second compound 0.1 µM,> 1000 nM
same,IC50,second compound 0.316 µM,> 1000 nM
same,IC50,second compound 1 µM,> 1000 nM
same,IC50,second compound 3.16 µM,> 1000 nM
same,IC50,second compound 10 µM,> 1000 nM
same,"viability, T/C",[1],103%
same,"viability, T/C",[2],101%
same,"viability, T/C",[3],96.3%
same,"viability, T/C",[4],79.4%
same,"viability, T/C","second compound 0.1 µM, first compound 0.316 µM",83.6%
same,"viability, T/C","second compound 0.1 µM, first compound 1 µM",73.5%
same,"viability, T/C",[5],87.8%
same,"viability, T/C",[6],113%
same,"viability, T/C",[7],87.8%
same,"viability, T/C",[8],87.5%
same,"viability, T/C","second compound 0.316 µM, first compound 0.316 µM",85.4%
same,"viability, T/C","second compound 0.316 µM, first compound 1 µM",79.9%
same,"viability, T/C",[9],91.2%
same,"viability, T/C",[10],92%
same,"viability, T/C",[11],95.5%
same,"viability, T/C",[12],81.3%
same,"viability, T/C","second compound 1 µM, first compound 0.316 µM",86.5%
same,"viability, T/C","second compound 1 µM, first compound 1 µM",67.5%
same,"viability, T/C",[13],94%
same,"viability, T/C",[14],112%
same,"viability, T/C",[15],93.7%
same,"viability, T/C",[16],101%
same,"viability, T/C","second compound 3.16 µM, first compound 0.316 µM",93.8%
same,"viability, T/C","second compound 3.16 µM, first compound 1 µM",90%
same,"viability, T/C",[17],94.3%
same,"viability, T/C",[18],103%
same,"viability, T/C",[19],90.7%
same,"viability, T/C",[20],93.5%
same,"viability, T/C","second compound 10 µM, first compound 0.316 µM",84.8%
same,"viability, T/C","second compound 10 µM, first compound 1 µM",95.6%
